From ChEMBL document CHEMBL1201862, “PubChem BioAssay data set” (2004)
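All cell lines were grown in 96-well plates and treated with compound for 48 hours. GI50 marks 50% less growth.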 Calls of active or inactive are those of the source. Cut-off read from the data, not from the text of the source: active = GI50 up to about 1.1 µM and inactive = higher.

Legend:
Test in all cases: growth of human tumour cells (NCI), 48 h
[1] = test system: SW-620
[2] = test system: SN12C
[3] = test system: NCI-H23
[4] = test system: TK-10
[5] = test system: RPMI-8226
[6] = test system: SF-268
[7] = test system: SK-OV-3
[8] = test system: PC-3
[9] = test system: SNB-75
[10] = test system: U-251
[11] = test system: OVCAR-3
[12] = test system: BT-549
[13] = test system: KM12
[14] = test system: SK-MEL-28
[15] = test system: SR
[16] = test system: HOP-62
[17] = test system: MDA-MB-231
[18] = test system: M14
[19] = test system: HT-29
[20] = test system: RXF 393

Measured: GI50

COC(=O)C1=C(C(=O)OC)C(C(=O)c2ccc(Br)cc2)N2N=C(c3ccc(Cl)cc3)C=CC12 (stereo not drawn)
inactive: [1] > 100 µM | [2] > 100 µM | [3] > 100 µM | [4] > 100 µM | [5] > 100 µM | [6] 69.7 µM | [7] > 100 µM | [8] 80.4 µM | [9] 35.2 µM | [10] > 100 µM | [11] > 100 µM | [12] 34.8 µM | [13] 14.5 µM | [14] > 100 µM | [15] 40.6 µM | [16] > 100 µM | [17] > 100 µM | [18] > 100 µM

CC(=O)NC(CC(C)C)C(=O)NC(CC(C)C)C(=O)NC(C=O)CCCNC(=N)N (stereo not drawn)
inactive: [1] > 100 µM | [2] > 100 µM | [19] > 100 µM | [3] > 100 µM | [4] > 100 µM | [5] > 100 µM | [6] > 100 µM | [7] > 100 µM | [8] > 100 µM | [9] > 100 µM | [10] > 100 µM | [11] > 100 µM | [12] > 100 µM | [13] > 100 µM | [14] > 100 µM | [15] > 100 µM | [16] > 100 µM | [17] > 100 µM | [18] > 100 µM

COc1ccc2c(c1)CCC/C2=N\NS(=O)(=O)c1c(C)cc(C)cc1C
inactive: [1] 28.1 µM | [2] 21.8 µM | [19] 20.7 µM | [3] 24.8 µM | [4] 51.4 µM | [8] 28.6 µM | [9] 13.8 µM | [10] 31.6 µM | [11] 32.4 µM | [12] 28.9 µM | [13] 16 µM | [14] 35.1 µM | [15] 20.2 µM | [16] 43.4 µM | [17] 30.8 µM | [18] 33.2 µM

CCOC(=O)CCC(NC(=O)Cc1ccc(Nc2nc3ccccc3nc2-c2ccccc2)cc1)C(=O)OCC (stereo not drawn)
inactive: [1] > 100 µM | [2] > 100 µM | [19] > 100 µM | [3] 20.7 µM | [4] 14 µM | [6] 5.26 µM | [20] 10.3 µM | [7] 22.4 µM | [8] 17.4 µM | [9] 8.79 µM | [10] 15.1 µM | [12] 46.8 µM | [13] > 100 µM | [14] > 100 µM | [15] > 100 µM | [16] 6.46 µM | [17] 16.9 µM | [18] 65.6 µM

CC(N)(CC(O)(C(F)(F)Cl)C(F)(F)Cl)C(=O)O (stereo not drawn)
inactive: [1] > 10 µM | [2] > 10 µM | [19] > 10 µM | [3] > 10 µM | [4] > 10 µM | [6] > 10 µM | [7] > 10 µM | [8] > 10 µM | [9] > 10 µM | [10] > 10 µM | [11] > 10 µM | [12] > 10 µM | [13] > 10 µM | [14] > 10 µM | [15] > 10 µM | [16] > 10 µM | [17] > 10 µM | [18] > 10 µM

N#Cc1c2ccc([N+](=O)[O-])cc2c(=O)n2c1sc1ccccc12
inactive: [1] 18.9 µM | [2] 24.3 µM | [19] 33.7 µM | [3] 15.2 µM | [4] 16 µM | [5] 9.93 µM | [6] 56.2 µM | [8] 14.8 µM | [9] 42.2 µM | [10] 14.6 µM | [12] 19.9 µM | [13] 31.6 µM | [14] 17.6 µM | [15] 3.94 µM | [17] 17.2 µM

COC(=O)c1cc(NC(=O)c2cc(NC(=O)Cc3c[nH]c4ccccc34)cn2C)cn1C
inactive: [1] 57.1 µM | [2] 33.4 µM | [19] 22.2 µM | [3] 24.3 µM | [4] 31.5 µM | [5] 20.5 µM | [6] 42.6 µM | [20] 31.3 µM | [7] 40 µM | [8] 19.1 µM | [9] 20.5 µM | [11] 41.9 µM | [12] 37.3 µM | [13] 24.3 µM | [14] 35.9 µM | [16] > 100 µM | [17] 25.9 µM | [18] 33 µM

C/C(=N/NC(=S)N1CCN(C(=S)N/N=C(/C)c2ccccn2)CC1)c1ccccn1
inactive: [1] 7 µM | [2] 8.65 µM | [19] 7.33 µM | [3] 10.1 µM | [4] 4.84 µM | [5] 12.1 µM | [6] 3.03 µM | [20] 3.52 µM | [7] 8.3 µM | [8] 14.3 µM | [9] 15.1 µM | [10] 8.89 µM | [11] 3.01 µM | [12] 15.9 µM | [13] 16.5 µM | [14] 14.3 µM | [16] 10 µM | [17] 45.2 µM | [18] 4.47 µM

NC1=Nc2cc(Cl)ccc2Sc2nc3ccccc3n21
inactive: [1] > 86.3 µM | [2] > 100 µM | [19] 4.53 µM | [3] 6.53 µM | [4] > 88.9 µM | [5] 5.73 µM | [6] > 61.5 µM | [7] > 100 µM | [8] 6.76 µM | [9] 21.4 µM | [10] 4.48 µM | [11] > 100 µM | [12] > 100 µM | [13] > 100 µM | [14] > 100 µM | [15] 2.64 µM | [16] > 86.3 µM | [17] > 20.7 µM | [18] 2.52 µM

CC(=O)OCC1OC(n2c(C#N)cc(=O)[nH]c2=O)CC1OC(C)=O (stereo not drawn)
inactive: [1] > 100 µM | [2] > 100 µM | [19] > 100 µM | [3] > 100 µM | [4] > 100 µM | [6] > 100 µM | [20] > 100 µM | [7] > 100 µM | [8] > 100 µM | [9] > 100 µM | [10] > 100 µM | [11] > 100 µM | [12] > 100 µM | [13] > 100 µM | [14] > 100 µM | [15] > 100 µM | [16] > 100 µM | [17] > 100 µM | [18] > 100 µM

Cc1ccc(/N=C2\OP(=O)(Nc3ccc(C)cc3)Oc3ccccc32)cc1 (stereo not drawn)
inactive: [1] > 100 µM | [2] > 100 µM | [19] > 100 µM | [3] > 100 µM | [4] > 100 µM | [6] > 100 µM | [20] 81.5 µM | [7] > 100 µM | [8] > 100 µM | [9] 36.4 µM | [10] > 100 µM | [11] > 100 µM | [12] > 100 µM | [13] > 100 µM | [14] > 100 µM | [15] > 100 µM | [16] > 100 µM | [17] > 100 µM | [18] 29.3 µM
